Earlier results on two compounds are cited in US20110201657A1, “AMIDE SUBSTITUTED INDAZOLE AND BENZOTRIAZOLE DERIVATIVES AS POLY(ADP-RIBOSE)POLYMERASE (PARP) INHIBITORS” (Istituto di Ricerche di Biologia Molecolare P. Angeletti SpA, priority 2006, published 2011).

This data set deals with infarct size in the heart. The conditions noted are these: rabbits.

Each structure is given as a SMILES string.

For the compound `NC(=O)c1cccc(N)c1` [3-amino-benzamide], the “reduction in infarct size in the heart” value (single injection 10 mg/kg, one minute before occlusion or before reperfusion) is given as 32-42%.

For the compound `Oc1cccc2c(O)nccc12` [1,5-dihydroxyisoquinoline], the “reduction in infarct size” value (single injection 1 mg/kg) is listed as 38-48%.
